Results taken from patent US20120046363A1, “DOCOSAHEXAENOIC ACID FOR THE TREATMENT OF HEART FAILURE” (University of Maryland, Baltimore, priority 2009, published 2012).

How the values were obtained:
[1] = tested on: mitochondrial permeability transition pore (MPTP); assay: Ca2+ retention capacity (index of MPTP opening) in mitochondria from diet-treated rats, Series 1; assay type: in vivo, male Wistar rats
Method: (§1) Experimental Design: The animal protocol was conducted according to the Guideline for the Care and Use of Laboratory Animals (NIH publication 85-23) and was approved by the University of Maryland School of Medicine Institutional Animal Care and Use Committee. Investigators were blinded to treatment when measurements were performed. The animals were maintained on a reverse 12-h light-dark cycle and all procedures were performed in the fed state between 3 and 6 h from the start of the dark phase. Two series of experiments were performed. In the initial studies (Series 1) male Wistar rats weighing 190-200 g were fed a standard low fat diet (CTRL) or modified standard diet containing DHA or EPA at 2.5% of total caloric intake, which corresponds to a human intake of approximately 5.5 g/day (calculated assuming an energy intake of 2000 kcal/day and 9 kcal/g of fat). The rats were maintained on the diet for 8 weeks. Following dietary treatment, rats were anesthetized with isoflurane, blood was drawn, and the heart was harvested for biochemical analysis and mitochondrial isolation. Plasma from these animals was analyzed for free fatty acids and triglyceride levels, and cardiac mitochondria for respiration, Ca^2+ retention capacity (an index of MPTP opening), VDAC and cyclophilin D, and membrane phospholipid composition as described below. Following completion of Series 1, a second series of animal studies (Series 2) were performed to assess mitochondrial swelling using a light scattering assay, and the effects of different respiratory substrates on Ca^2+ retention capacity in mitochondria from control and DHA supplemented rats. Animals were treated for 10 weeks and were fed either CTRL or DHA (2.5% of total caloric intake).
(§2) Mitochondrial Preparation: Mitochondria were isolated as previously described^228. LV tissue (400-500 mg) was minced and homogenized in 1:10 cold modified Chappel-Perry buffer (100 mM KCl, 50 mM MOPS, 5 mM MgSO4, 1 mM ATP, 1 mM EGTA, 2 mg/ml BSA), and the homogenates were centrifuged at 500×g. Subsequent centrifugation allowed for separation and purification of the subsarcolemmal mitochondria. The concentration of mitochondrial protein was measured by the Lowry method using bovine serum albumin as a standard.

[2] = tested on: isolated cardiac mitochondria; assay: Cardiac mitochondrial phospholipid fatty acid composition by gas chromatography; assay type: in vivo, male Wistar rats; settings: Series 1, 8 weeks diet, mean ± SEM; for Mitochondrial phospholipid C16:0: n = 7-8/group; for Mitochondrial phospholipid C20:3n6 / Mitochondrial phospholipid C20:5n3: BQL in control; for Mitochondrial phospholipid C22:6n3: DHA; for Mitochondrial phospholipid C20:5n3: EPA; for Mitochondrial phospholipid C20:4n6: arachidonic acid (ARA)
Method: as §1, §2
(§3) Membrane Lipid Composition: Cardiac phospholipid fatty acid composition was assessed in a subset of animals from Series 1 (n=7-9/group) on isolated cardiac mitochondria homogenates by gas chromatography with a flame ionization detector according to a modification of the transesterification method as previously described^228. CL composition was assessed on isolated cardiac mitochondria by electrospray ionization mass spectrometry using 1,1′,2,2′-tetramyristoyl CL as an internal standard as previously described (n=9/group)^228,229, 230.

[3] = tested on: isolated cardiac mitochondria; assay: Mitochondrial respiration (oxygen consumption, Clark-type electrode); assay type: in vivo, male Wistar rats; settings: for P:O: measurements without oligomycin; for RCR: ratio of State 3 to State 4 rate with oligomycin; for decrease of state 4 respiration / increase of RCR: pyruvate+malate, vs control, p<0.05; for decrease of state 4 respiration: absence and presence of oligomycin
Method: as §1, §2
Mitochondrial respiration: Mitochondrial oxygen consumption was measured using a Clark-type oxygen electrode (Qubit Systems, Ontario, Canada). Mitochondria (0.25 mg protein) were suspended in 0.5 ml solution consisting of 100 mM KCl, 50 mM MOPS, 5 mM KH2PO4, 1 mM EGTA, and 0.5 mg fatty acid-free bovine serum albumin, at pH 7.4 and 37° C. State 3 (ADP-stimulated) and state 4 (non-phosphorylating) respiration were measured with glutamate+malate (10 and 5 mM, respectively), pyruvate+malate (10 and 5 mM, respectively) and palmitoylcarnitine+malate (40 μM and 5 mM, respectively) to assess respiration through complex I-IV, while succinate+rotenone (10 mM and 7.5 μM, respectively), were used to assess respiration through complex II-IV of the ETC exclusively. State 4 respiration was also measured in the presence of oligomycin to inhibit the mitochondrial ATP synthase.

VDAC1 = assay: Western blot of isolated mitochondria, densitometry; assay type: in vivo, male Wistar rats; settings: CTRL 1.00 ± 0.13
Method: (§4) Metabolic and Biochemical Parameters: Free fatty acids and triglycerides were assessed in the plasma using commercially available kits (Wako, Richmond, Va.). Mitochondrial proteins were separated by electrophoresis in 4-12% NuPage gels, transferred onto a nitrocellulose membrane, and incubated with specific antibodies to cyclophilin D and voltage-dependent anion channel (VDAC) (1:10,000 and 1:5000, respectively, both from Mitosciences, Eugene, Oreg.). Fluorescence-conjugated secondary antibodies (IRDye 800, 1:10,000; LI-COR Bioscience) were used for incubation before the membranes were scanned with Odyssey® infrared imaging system (LI-COR Bioscience). The digitized image was analyzed with Odyssey® software.

cyclophilin D = assay: as above; assay type: in vivo, male Wistar rats; settings: CTRL 1.00 ± 0.08
Method: as §4

VDAC2 = assay: as above; assay type: in vivo, male Wistar rats; settings: CTRL 1.00 ± 0.15
Method: as §4

[4] = tested on: isolated cardiac mitochondria; assay: Cardiac mitochondrial cardiolipin (CL) content and composition by electrospray ionization mass spectrometry; assay type: in vivo, male Wistar rats; settings: for total CL content: Series 1, 8 weeks diet, CTRL 10.7±0.8, DHA vs CTRL p<0.08
Method: as §1, with “Following completion of Series 1, a second series of animal studies (Series 2) were performed to assess mitochondrial swelling using a light scattering assay, and the effects of different respiratory substrates on Ca^2+ retention capacity in mitochondria from control and DHA supplemented rats. Animals were treated for 10 weeks and were fed either CTRL or DHA (2.5% of total caloric intake).” left out
Mitochondrial Preparation: Mitochondria were isolated as previously described^228. […] The concentration of mitochondrial protein was measured by the Lowry method using bovine serum albumin as a standard.
as §3

[5] = Plasma free fatty acids and triglycerides after dietary supplementation (Series 1); assay type: in vivo, male Wistar rats; settings: 2.5% of caloric intake, 8 weeks, FIG. 7
Method: as §1, with “Following dietary treatment, rats were anesthetized with isoflurane, blood was drawn, and the heart was harvested for biochemical analysis and mitochondrial isolation.” left out, “Following completion of Series 1, a second series of animal studies (Series 2) were performed to assess mitochondrial swelling using a light scattering assay, and the effects of different respiratory substrates on Ca^2+ retention capacity in mitochondria from control and DHA supplemented rats. Animals were treated for 10 weeks and were fed either CTRL or DHA (2.5% of total caloric intake).” left out
Metabolic and Biochemical Parameters: Free fatty acids and triglycerides were assessed in the plasma using commercially available kits (Wako, Richmond, Va.). […] The digitized image was analyzed with Odyssey® software.

tumor necrosis factor = molecular target: T1, tumor necrosis factor (Homo sapiens, UniProt P01375); settings: direct cytokine blockade; cited from earlier work
T1 construct: host or cells: heart-failure patients
T1 sequence (P01375 77-233 limits assumed): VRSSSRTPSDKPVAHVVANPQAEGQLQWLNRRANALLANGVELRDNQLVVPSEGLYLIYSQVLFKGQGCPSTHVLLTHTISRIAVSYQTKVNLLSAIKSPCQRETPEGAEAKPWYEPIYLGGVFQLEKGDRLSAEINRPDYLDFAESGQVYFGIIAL

[6] = glutamate + malate, without CsA, CTRL 83.0±8.7
[7] = mitochondria of diet group with addition of 100 nM CsA

CC/C=C\C/C=C\C/C=C\C/C=C\C/C=C\C/C=C\CCC(=O)O [DHA, docosahexaenoic acid]
Ca2+ required to elicit MPTP [1, 6]: 134.9±11.4 nmol Ca^2+/mg mito prot
Ca2+ required to elicit MPTP [1, 7]: 147.0±17.3 nmol Ca^2+/mg mito prot
Mitochondrial phospholipid C18:0 [2]: 18.9 ± 0.5 molar percent of total phospholipid fatty acid
Mitochondrial phospholipid C18:1n7 [2]: 3.7 ± 0.2 molar percent of total phospholipid fatty acid
Mitochondrial phospholipid C18:1n9 [2]: 13.0 ± 1.0 molar percent of total phospholipid fatty acid
Mitochondrial phospholipid C18:2n6 [2]: 23.1 ± 1.0 molar percent of total phospholipid fatty acid
Mitochondrial phospholipid Total ω-3 PUFA [2]: 19.2 ± 0.5 molar percent of total phospholipid fatty acid
Mitochondrial phospholipid C16:0 [2]: 13.3 ± 0.5 molar percent of total phospholipid fatty acid
Mitochondrial phospholipid C20:3n6 [2]: 1.6 ± 0.2 molar percent of total phospholipid fatty acid
Mitochondrial phospholipid C22:6n3 [2]: 14.8 ± 0.6 molar percent of total phospholipid fatty acid
Mitochondrial phospholipid C20:5n3 [2]: 4.4 ± 0.3 molar percent of total phospholipid fatty acid
Mitochondrial phospholipid C20:4n6 [2]: 5.7 ± 0.2 molar percent of total phospholipid fatty acid
State 4 (+ oligomycin) respiration ([3]; Glutamate + Malate): 17.2 ± 2.0 ng atoms O · mg^−1 · min^−1
State 4 (− oligomycin) respiration ([3]; Glutamate + Malate): 35.3 ± 2.9 ng atoms O · mg^−1 · min^−1
State 3 respiration ([3]; Glutamate + Malate, mean ± SEM): 115.2 ± 16.2 ng atoms O · mg^−1 · min^−1
P:O ([3]; Glutamate + Malate): 2.37 ± 0.18
RCR ([3]; Glutamate + Malate): 7.0 ± 0.9
State 3 respiration ([3]; Palmityl-carnitine + Malate): 265.7 ± 34.4 ng atoms O · mg^−1 · min^−1
State 4 (+ oligomycin) respiration ([3]; Palmityl-carnitine + Malate): 24.9 ± 2.6 ng atoms O · mg^−1 · min^−1
State 4 (− oligomycin) respiration ([3]; Palmityl-carnitine + Malate): 42.6 ± 1.9 ng atoms O · mg^−1 · min^−1
P:O ([3]; Palmityl-carnitine + Malate): 2.50 ± 0.12
RCR ([3]; Palmityl-carnitine + Malate): 11.4 ± 1.8
State 3 respiration ([3]; Pyruvate + Malate): 240.4 ± 28.7 ng atoms O · mg^−1 · min^−1
State 4 (+ oligomycin) respiration ([3]; Pyruvate + Malate): 34.8 ± 4.2 ng atoms O · mg^−1 · min^−1
State 4 (− oligomycin) respiration ([3]; Pyruvate + Malate): 54.0 ± 3.2 ng atoms O · mg^−1 · min^−1
P:O ([3]; Pyruvate + Malate): 2.48 ± 0.09
RCR ([3]; Pyruvate + Malate): 7.7 ± 1.0
State 3 respiration ([3]; Succinate + Rotenone): 325.2 ± 19.6 ng atoms O · mg^−1 · min^−1
State 4 (+ oligomycin) respiration ([3]; Succinate + Rotenone): 84.7 ± 10.1 ng atoms O · mg^−1 · min^−1
State 4 (− oligomycin) respiration ([3]; Succinate + Rotenone): 99.3 ± 7.0 ng atoms O · mg^−1 · min^−1
P:O ([3]; Succinate + Rotenone): 1.48 ± 0.06
RCR ([3]; Succinate + Rotenone): 4.1 ± 0.4
decrease of state 4 respiration [3]: 30%
increase of RCR [3]: 70%
VDAC 1 protein, densitometry (VDAC1): 1.03 ± 0.22
Cyclophilin D protein, densitometry (cyclophilin D): 1.01 ± 0.10
VDAC 2 protein, densitometry (VDAC2): 1.02 ± 0.20
total CL content [4]: 13.2±0.8 nmols/mg mito prot

CC/C=C\C/C=C\C/C=C\C/C=C\C/C=C\CCCC(=O)O [EPA, eicosapentanoic acid]
Ca2+ required to elicit MPTP [1, 6]: 80.8±4.9 nmol Ca^2+/mg mito prot
Ca2+ required to elicit MPTP [1, 7]: 130.6±12.8 nmol Ca^2+/mg mito prot
plasma free fatty acid concentration compared to CTRL [5]: lowered
plasma triglyceride concentration compared to CTRL [5]: lowered
Mitochondrial phospholipid C18:0 [2]: 19.8 ± 0.8 molar percent of total phospholipid fatty acid
Mitochondrial phospholipid C18:1n7 [2]: 4.2 ± 0.2 molar percent of total phospholipid fatty acid
Mitochondrial phospholipid C18:1n9 [2]: 11.8 ± 1.0 molar percent of total phospholipid fatty acid
Mitochondrial phospholipid C18:2n6 [2]: 22.4 ± 0.8 molar percent of total phospholipid fatty acid
Mitochondrial phospholipid Total ω-3 PUFA [2]: 14.3 ± 0.3 molar percent of total phospholipid fatty acid
Mitochondrial phospholipid C16:0 [2]: 10.8 ± 0.6 molar percent of total phospholipid fatty acid
Mitochondrial phospholipid C16:1 ([2]; BQL = below the quantifiable limit (limit of detection = 0.41%)): 4.5 ± 1.8 molar percent of total phospholipid fatty acid
Mitochondrial phospholipid C20:3n6 [2]: 1.1 ± 0.2 molar percent of total phospholipid fatty acid
Mitochondrial phospholipid C22:6n3 [2]: 8.3 ± 0.2 molar percent of total phospholipid fatty acid
Mitochondrial phospholipid C20:5n3 [2]: 6.0 ± 0.2 molar percent of total phospholipid fatty acid
Mitochondrial phospholipid C20:4n6 [2]: 9.8 ± 0.8 molar percent of total phospholipid fatty acid
State 4 (+ oligomycin) respiration ([3]; Glutamate + Malate): 19.1 ± 3.3 ng atoms O · mg^−1 · min^−1
State 4 (− oligomycin) respiration ([3]; Glutamate + Malate): 32.1 ± 4.8 ng atoms O · mg^−1 · min^−1
State 3 respiration ([3]; Glutamate + Malate, mean ± SEM): 119.3 ± 13.4 ng atoms O · mg^−1 · min^−1
P:O ([3]; Glutamate + Malate): 2.76 ± 0.23
RCR ([3]; Glutamate + Malate): 7.0 ± 1.0
State 3 respiration ([3]; Palmityl-carnitine + Malate): 243.7 ± 28.1 ng atoms O · mg^−1 · min^−1
State 4 (+ oligomycin) respiration ([3]; Palmityl-carnitine + Malate): 29.7 ± 3.8 ng atoms O · mg^−1 · min^−1
State 4 (− oligomycin) respiration ([3]; Palmityl-carnitine + Malate): 59.4 ± 7.0 ng atoms O · mg^−1 · min^−1
P:O ([3]; Palmityl-carnitine + Malate): 2.57 ± 0.14
RCR ([3]; Palmityl-carnitine + Malate): 9.5 ± 1.8
State 3 respiration ([3]; Pyruvate + Malate): 221.2 ± 31.0 ng atoms O · mg^−1 · min^−1
State 4 (+ oligomycin) respiration ([3]; Pyruvate + Malate): 43.3 ± 5.2 ng atoms O · mg^−1 · min^−1
State 4 (− oligomycin) respiration ([3]; Pyruvate + Malate): 63.5 ± 6.4 ng atoms O · mg^−1 · min^−1
P:O ([3]; Pyruvate + Malate): 2.44 ± 0.30
RCR ([3]; Pyruvate + Malate): 5.1 ± 0.3
State 3 respiration ([3]; Succinate + Rotenone): 307.2 ± 37.1 ng atoms O · mg^−1 · min^−1
State 4 (+ oligomycin) respiration ([3]; Succinate + Rotenone): 80.3 ± 11.7 ng atoms O · mg^−1 · min^−1
State 4 (− oligomycin) respiration ([3]; Succinate + Rotenone): 102.1 ± 11.5 ng atoms O · mg^−1 · min^−1
P:O ([3]; Succinate + Rotenone): 1.48 ± 0.08
RCR ([3]; Succinate + Rotenone): 4.1 ± 0.5
decrease of state 4 respiration [3]: no effect
increase of RCR [3]: no effect
VDAC 1 protein, densitometry (VDAC1): 0.87 ± 0.16
Cyclophilin D protein, densitometry (cyclophilin D): 1.00 ± 0.08
VDAC 2 protein, densitometry (VDAC2): 0.94 ± 0.17
total CL content [4]: 11.1±0.8 nmols/mg mito prot
CL species containing one ARA and three linoleic acid moieties (ARA1L3CL) ([4]; Series 1, compared to CTRL, FIG. 9): decrease

ETANERCEPT
efficacy in HF patients (tumor necrosis factor): not effective
